{
  "source": "paper PMC6587524",
  "about": "(Journal of Clinical Pharmacology, 2018)",
  "key": {"[1]": {"assay_type": "in vivo, healthy female subjects", "set-up": "AUC0-t, Central Value, Test / AUC0-t, Central Value, Reference / AUCinf, Central Value, Test / AUCinf, Central Value, Reference: unit not given beside the values", "settings": "for Bioequivalence in the presence and absence of upadacitinib: 90% CIs of Cmax and AUC ratios within 0.8 to 1.25; for Tmax: median (minimum to maximum); for AUC(0-inf): AUCinf; for half-life: t1/2 (terminal half-life), harmonic mean (pseudo-standard deviation)"}, "[2]": {"assay": "Safety assessment during the study", "assay_type": "in vivo, healthy female subjects", "settings": "period 2"}, "[3]": {"settings": "cited from earlier work"}, "cytochrome P450 (CYP) 3A": {"tested_on": "cytochrome P450 (CYP) 3A", "settings": "coadministration following multiple doses of ketoconazole; cited from earlier work"}, "JAK1": {"tested_on": "JAK1", "settings": "cited from earlier work"}, "other JAK isoforms": {"tested_on": "other JAK isoforms", "settings": "relative to JAK1; cited from earlier work"}, "[4]": {"settings": "ethinylestradiol/levonorgestrel 0.03/0.15 mg with upadacitinib 30 mg QD, period 2, N = 20"}, "[5]": {"settings": "ethinylestradiol/levonorgestrel 0.03/0.15 mg alone, period 1 day 1, N = 22, mean ± SD"}, "[6]": {"settings": "ethinylestradiol/levonorgestrel 0.03/0.15 mg with upadacitinib 30 mg QD, period 2, N = 20, mean ± SD"}, "[7]": {"settings": "period 1, day 1 (oral contraceptive alone), repeated measures analysis"}, "[8]": {"settings": "period 2, day 12 (with upadacitinib 30 mg QD), repeated measures analysis"}},
  "note": "Like-named read-outs stand apart in the source and are kept apart here.",
  "data": [
    {"smiles": "C#C[C@]1(O)CC[C@H]2[C@@H]3CCc4cc(O)ccc4[C@H]3CC[C@@]21C", "note": "[Ethinylestradiol]", "values": [
      {"measurement": "Bioequivalence in the presence and absence of upadacitinib", "setting": "[1]", "value": "bioequivalent"},
      {"measurement": "Tmax", "setting": "[1]; [4]", "value": "1.5 (1.0–3.0) h"},
      {"measurement": "AUC(0-t)", "setting": "[1]; female, human, plasma, po, AUC0-t, Central Value, Test, period 2, day 12 (with upadacitinib 30 mg QD), repeated measures analysis", "value": 0.39, "unit": "ng·h/mL"},
      {"measurement": "AUC(0-t)", "setting": "[1]; female, human, plasma, po, AUC0-t, ethinylestradiol/levonorgestrel 0.03/0.15 mg alone, period 1 day 1, N = 22, mean ± SD", "value": "0.378 ± 0.154", "unit": "ng·h/mL"},
      {"measurement": "AUC(0-t)", "setting": "[1]; female, human, plasma, po, AUC0-t, ethinylestradiol/levonorgestrel 0.03/0.15 mg with upadacitinib 30 mg QD, period 2, N = 20, mean ± SD", "value": "0.426 ± 0.137", "unit": "ng·h/mL"},
      {"measurement": "AUC(0-inf)", "setting": "[1]; female, human, plasma, po, Central Value, Test, period 2, day 12 (with upadacitinib 30 mg QD), repeated measures analysis", "value": 0.445, "unit": "ng·h/mL"},
      {"measurement": "AUC(0-inf)", "setting": "[1]; female, human, plasma, po, ethinylestradiol/levonorgestrel 0.03/0.15 mg alone, period 1 day 1, N = 22, mean ± SD", "value": "0.441 ± 0.193", "unit": "ng·h/mL"},
      {"measurement": "half-life", "setting": "[1]; female, human, plasma, po, ethinylestradiol/levonorgestrel 0.03/0.15 mg alone, period 1 day 1, N = 22", "value": 7, "unit": "h"},
      {"measurement": "half-life", "setting": "[1]; female, human, plasma, po, ethinylestradiol/levonorgestrel 0.03/0.15 mg with upadacitinib 30 mg QD, period 2, N = 20", "value": 7.7, "unit": "h"}
    ]},
    {"smiles": "C#C[C@]1(O)CC[C@H]2[C@@H]3CCC4=CC(=O)CC[C@@H]4[C@H]3CC[C@@]21CC", "note": "[Levonorgestrel]", "values": [
      {"measurement": "Bioequivalence in the presence and absence of upadacitinib", "setting": "[1]", "value": "bioequivalent"},
      {"measurement": "AUC(0-t)", "setting": "[1]; [5]", "value": "43.0 ± 18.4", "unit": "ng·h/mL"},
      {"measurement": "AUCinf", "setting": "[1]; [5]", "value": "51.7 ± 22.0", "unit": "ng·h/mL"},
      {"measurement": "Cmax", "setting": "[1]; [5]", "value": "3.9 ± 1.4", "unit": "ng/mL"},
      {"measurement": "Tmax", "setting": "[1]; ethinylestradiol/levonorgestrel 0.03/0.15 mg alone, period 1 day 1, N = 22", "value": "0.8 (0.5–2.0) h"},
      {"measurement": "AUC(0-t)", "setting": "[1]; [6]", "value": "38.7 ± 12.1", "unit": "ng·h/mL"},
      {"measurement": "AUCinf", "setting": "[1]; [6]", "value": "49.5 ± 20.4", "unit": "ng·h/mL"},
      {"measurement": "Cmax", "setting": "[1]; [6]", "value": "3.7 ± 1.15", "unit": "ng/mL"},
      {"measurement": "Tmax", "setting": "[1]; [4]", "value": "0.8 (0.5–2.0) h"},
      {"measurement": "AUC0-t, Central Value, Reference", "setting": "[1]; [7]", "value": 39.6},
      {"measurement": "AUCinf, Central Value, Reference", "setting": "[1]; [7]", "value": 47.6},
      {"measurement": "AUC0-t, Central Value, Test", "setting": "[1]; [8]", "value": 36.3},
      {"measurement": "AUCinf, Central Value, Test", "setting": "[1]; [8]", "value": 45.5}
    ]},
    {"smiles": "CC[C@@H]1CN(C(=O)NCC(F)(F)F)C[C@@H]1c1cnc2cnc3[nH]ccc3n12", "note": "[Upadacitinib]", "values": [
      {"measurement": "effect of upadacitinib on the exposures of ethinylestradiol or levonorgestrel", "setting": "[1]; upadacitinib 30 mg QD repeated doses", "value": "no effect"},
      {"measurement": "relation of treatment-emergent adverse events to upadacitinib", "setting": "[2]", "value": "not considered to have a reasonable possibility of being related"},
      {"measurement": "accumulation upon multiple QD dosing", "setting": "[3]; extended-release formulation", "value": "No significant accumulation"},
      {"measurement": "administered dose eliminated in urine and feces as unchanged upadacitinib", "setting": "[3]; in vivo", "value": "> 60", "unit": "%"},
      {"measurement": "time to steady state", "setting": "[3]; multiple QD dosing, extended-release formulation", "value": "≤ 4", "unit": "days"},
      {"measurement": "increase in upadacitinib AUC", "setting": "cytochrome P450 (CYP) 3A", "value": 75, "unit": "%"},
      {"measurement": "increase in upadacitinib Cmax", "setting": "cytochrome P450 (CYP) 3A", "value": 70, "unit": "%"},
      {"measurement": "JAK1 inhibition", "setting": "JAK1", "value": "potently inhibits JAK1"},
      {"measurement": "potency against the other JAK isoforms", "setting": "other JAK isoforms", "value": "less potent"}
    ]}
  ]
}
